Results published in ChEMBL document CHEMBL1201862, “PubChem BioAssay data set” (2004).
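Briefly, cells in 96-well plates were exposed to five compound concentrations for 48 h, and endpoints were estimated by linear interpolation. Abbreviation: GI50, concentration required for 50% inhibition of growth.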 Active and inactive are the calls of the source. Cut-off read from the data, not from the text of the source: active = GI50 up to about 1.1 µM and inactive = higher.

Tests used:
Test in all cases: NCI tumour cell line growth inhibition, 48 h
[1] = tested on: LXFL 529
[2] = tested on: M19-MEL
[3] = tested on: KM-20L2
[4] = tested on: HOP-18
[5] = tested on: DMS-114
[6] = tested on: SNB-78
[7] = tested on: DMS-273
[8] = tested on: XF498
[9] = tested on: RXF 631

Structure (SMILES) | GI50 [1] | GI50 [2] | GI50 [3] | GI50 [4] | GI50 [5] | GI50 [6] | GI50 [7] | GI50 [8] | GI50 [9]
O=C(CCN1CCCCC1)Nc1ccc2c(c1)C(=O)c1ccc(NC(=O)CCN3CCCCC3)cc1C2=O | 1.88 µM (inactive) | 43.1 µM (inactive) | 18 µM (inactive) | 17 µM (inactive) | 17.6 µM (inactive) | 15.3 µM (inactive) | 1.71 µM (inactive) | – | –
Cc1nc(-n2nc(-c3ccccc3)cc2-c2ccccc2)sc1C(=O)/C=C/c1cccc([N+](=O)[O-])c1 | – | 16.4 µM (inactive) | 17.8 µM (inactive) | 12.1 µM (inactive) | 11.6 µM (inactive) | 52.7 µM (inactive) | 26.5 µM (inactive) | – | –
CN(C)C(=S)NC(=S)Nc1ccc2ccccc2c1 | 2.07 µM (inactive) | – | 10 µM (inactive) | – | – | 23.7 µM (inactive) | 1.67 µM (inactive) | 16.1 µM (inactive) | –
Cc1cc(N(CCC#N)CCC#N)ccc1CC1N=C(c2ccccc2)OC1=O (stereo not given) | > 100 µM (inactive) | > 100 µM (inactive) | > 100 µM (inactive) | – | > 100 µM (inactive) | – | > 100 µM (inactive) | > 100 µM (inactive) | > 100 µM (inactive)
Cc1ccc(C)c2c1C1CCCCC3(OCCCO3)C21O (stereo not given) | > 100 µM (inactive) | > 100 µM (inactive) | > 100 µM (inactive) | 17.1 µM (inactive) | 80 µM (inactive) | > 100 µM (inactive) | > 100 µM (inactive) | – | –
CCCCCC(=O)OC[n+]1ccc2c(C)c3[nH]c4ccccc4c3c(C)c2c1 | 1.02 µM (active) | 1.02 µM (active) | 0.612 µM (active) | – | 1.02 µM (active) | 0.995 µM (active) | 0.141 µM (active) | – | 0.408 µM (active)
O=C(O)C1=C(C(=O)O)Oc2ccccc2O1 | > 100 µM (inactive) | > 100 µM (inactive) | > 100 µM (inactive) | > 100 µM (inactive) | > 100 µM (inactive) | > 100 µM (inactive) | > 100 µM (inactive) | > 100 µM (inactive) | –
CN(C)C(=O)Oc1c(-c2ccccc2)c(=O)n2c3ccccc3n3c(=O)n(C)c(=O)c1c23 | > 100 µM (inactive) | > 100 µM (inactive) | – | > 100 µM (inactive) | > 100 µM (inactive) | > 100 µM (inactive) | > 100 µM (inactive) | > 100 µM (inactive) | > 100 µM (inactive)
CN(CCS(=O)(=O)N1C(=O)C2CCCN2C(=O)[C@@H]1Cc1ccccc1)C(=O)OCc1ccccc1 (stereo not given in full) | 45.4 µM (inactive) | 62.1 µM (inactive) | 61.8 µM (inactive) | > 100 µM (inactive) | 59.6 µM (inactive) | 92.7 µM (inactive) | – | – | 56.2 µM (inactive)
CCOC(=O)C1COc2cc(-c3cc(=O)c4ccccc4o3)ccc2O1 (stereo not given) | 65.2 µM (inactive) | 29.7 µM (inactive) | > 100 µM (inactive) | – | 42.6 µM (inactive) | 51.1 µM (inactive) | > 100 µM (inactive) | 30.6 µM (inactive) | –
CN(C)CCN(C)CCC(=O)/C=C/c1ccccc1 | 17.7 µM (inactive) | 20.2 µM (inactive) | 56.2 µM (inactive) | > 100 µM (inactive) | 30.2 µM (inactive) | 31 µM (inactive) | 17.4 µM (inactive) | 22.2 µM (inactive) | –
CC(C)(Oc1ccc(C(=O)c2ccc(Cl)cc2)cc1Cl)C(=O)Nc1c(Cl)cccc1Cl | > 100 µM (inactive) | > 100 µM (inactive) | > 100 µM (inactive) | > 100 µM (inactive) | 8.75 µM (inactive) | > 100 µM (inactive) | > 100 µM (inactive) | > 100 µM (inactive) | –
O=c1sc(-c2nc3ccccc3[nH]2)c(/N=C/c2ccccc2)n1-c1ccccc1 | 30.3 µM (inactive) | 94.2 µM (inactive) | – | 67 µM (inactive) | – | 35.5 µM (inactive) | 28.4 µM (inactive) | 31.2 µM (inactive) | –
N#CCCN(C1=NN(C(=O)CC(=O)Nc2ccc(Cl)cc2)C(c2ccccc2)C1)c1ccc(Cl)cc1 (stereo not given) | > 100 µM (inactive) | > 100 µM (inactive) | > 100 µM (inactive) | > 100 µM (inactive) | > 100 µM (inactive) | 40.4 µM (inactive) | > 100 µM (inactive) | > 100 µM (inactive) | > 100 µM (inactive)
